From patent US20060281798A1, “Methods of using thiazolidinedithione derivatives” (QLT Inc., priority 2002, published 2006)

How the values were obtained:
Type in all cases: cell-based
[1] = test system: PC3 cells, PTPN12 mouse embryonic fibroblasts (MEFs); experiment: Cell migration in a Boyden chamber; conditions: PC-3, cell line of Table 2 not stated
Text: A range of cell lines are used in this assay, particularly the prostate cancer cell line PC3 and PTPN12 mouse embryonic fibroblasts (MEFs). The role of PTPN12 in migration was established based on the observations of PTPN12 negative MEFs. Cell adhesion and migration are dynamic biological activities involving the assembly and disassembly of a large number of extracellular and intracellular molecules, for example, actin, which are regulated in turn by protein phosphorylation. […] Migration is reduced in PTPN12 knock-out MEFs. By extension, a PTPN12 inhibitor should reduce cell migration in a Boyden chamber. Therefore, as a readout for PTPN12 activity, the following assay is designed to analyze cell migration in Boyden chambers. […]
For tumour cell lines, stock cells (i.e. PC3 cells) are grown to 50-70% confluency in T175 flasks. […] Fluorescence of migrated cells is read in a Fluoroskan Ascent FL™ (or equivalent) with bottom reading at excitation/emission wavelength of 485/538 nm. Only those cells that have migrated through the pores of the FluoroBlok™ membrane will be read. […]
Data is expressed as fluorescence unit (FU) from the sum of middle 25 areas per 24-well or as percentage of migration inhibition by following formula: % of invasion inhibition=100−FU of compound treated cell invasion/FU of DMSO treated cell invasion times 100. […]

[2] = test system: PC3 Cells; experiment: Cell proliferation (3H-thymidine incorporation), PC3; conditions: Homo sapiens, PC-3, 24 hours
Text: (§1) This procedure (Jelinkova, R. B. et al., “Antiproliferative effect of a lectin- and anti-Thy-1.2 antibody-targeted HPMA copolymer-bound doxorubicin on primary and metastatic human colorectal carcinoma and on human colorectal carcinoma transfected with the mouse Thy-1.2 gene”, Bioconjug. Chem. (2000, September-October), Vol. 11, No. 5, pp. 664-73) is used to assess the effect compounds have on various cell lines with respect to proliferation. The rate of anchorage-independent growth of various tumor cells is quantified by measuring the amount of free isotopic thymidine that has been incorporated into the cells over a period of time. The effect of any compound to inhibit the proliferation of various tumor cells could be used as an indication of its ability to prevent disease progression in cancer.
(§2) Cultured tumour cells are harvested cells as per normal procedures: i.e. trypsinize, centrifuge and count cells. […]
(§3) After incubation, plates are observed under the microscope for obvious cell death, abnormal cell shape, crystal formation of the compound, etc. […] Finally, 100 μL of scintillation fluid is added to each well and the plates are counted in a Wallac 1450 Microbeta™ counter according to user manual instructions.
(§4) The amount of inhibition is determined by the following formula: % inhibition=100−[(AVG treatment−AVG positive control)/[…]]

[3] = test system: H460 Cells; experiment: Cell proliferation (3H-thymidine incorporation), H460; conditions: Homo sapiens, NCI-H460, 24 hours
Text: as §1, §2, §3, §4

Work on `S=C1NC(=S)C(=Cc2ccc(-c3ccc(Br)cc3)o2)S1` [5-[5-(4-Bromophenyl)-furan-2-ylmethylene]-thiazolidine-2,4-dithione] yielded an inhibition at 25 µM [1] of 65%, an inhibition at 50 µM [2] of 15% and an inhibition at 50 µM [3] of 89%.
